Experimental data as given in patent US5677293A, “16 unsaturated C17 heterocyclic steroids useful as steroid C17-20 lyase inhibitors” (Merrell Pharmaceuticals Inc., priority 1996, dated 1997).

How the values were obtained:
Assay type in all cases: biochemical
[1] = target: T1, Cynomolgus Monkey Testicular C17-20 Lyase (Macaca fascicularis, UniProt Q2XVA1); assay: Screen for time-dependent inhibition / inhibition of cynomolgus monkey testicular C17-20 lyase (microsomal preparation)
T1 construct: Microsomes are isolated from human or cynomolgus monkey tissue; from tissue; host or cells: cynomolgus monkey testis, microsomes
T1 sequence (Q2XVA1 1-508): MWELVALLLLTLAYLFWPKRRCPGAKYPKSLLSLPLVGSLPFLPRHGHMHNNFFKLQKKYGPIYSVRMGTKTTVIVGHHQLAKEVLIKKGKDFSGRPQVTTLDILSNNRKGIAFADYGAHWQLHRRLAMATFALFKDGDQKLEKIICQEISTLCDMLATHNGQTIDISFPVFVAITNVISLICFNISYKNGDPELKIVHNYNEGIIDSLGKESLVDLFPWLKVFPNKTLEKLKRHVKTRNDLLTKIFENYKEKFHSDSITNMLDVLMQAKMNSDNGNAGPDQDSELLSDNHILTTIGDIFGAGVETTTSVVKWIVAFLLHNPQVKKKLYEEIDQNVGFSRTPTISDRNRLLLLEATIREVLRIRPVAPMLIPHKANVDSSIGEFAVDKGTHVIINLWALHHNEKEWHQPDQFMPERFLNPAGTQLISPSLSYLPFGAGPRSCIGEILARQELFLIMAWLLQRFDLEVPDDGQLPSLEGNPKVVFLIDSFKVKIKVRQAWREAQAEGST
Description: (§1) Utilizing an in vitro assay, the activity of the compounds of formulas (I) and (II) as inhibitors of steroid C17-20 lyase are established using microsomal preparations of the enzyme from human or cynomolgus monkey testicular tissue. Human testes were acquired from therapeutic orchiectomies. Microsomes are isolated from human or cynomolgus monkey tissue. The compound to be tested is dissolved in dimethyl sulfoxide and diluted in 0.05M potassium phosphate buffer, pH 7.4, to give the desired concentrations of test compound. Assays contain an NADPH regenerating system comprised of 1 mM NADPH, 5 mM glucose-6-phosphate, 1 IU/mL glucose-6-phosphate dehydrogenase and microsomal protein in a total volume of 0.2 mL. Control assays contain all components, including dimethyl sulfoxide, but no test compound. All assays are performed in duplicate. For determination of time dependent C17-20 lyase inactivation, the test compound is incubated with 20 to 62 μg/mL microsomal protein, buffer and the NADPH regenerating system described above at 34° C. for 0 or 40 minutes. Aliquots of 180 μL are then removed and assayed for enzyme activity by addition to 7-^3 H-17α-hydroxypregnenolone (11.2 mCi/mmole; 0.2 μCi per assay) plus unlabeled 17α-hydroxypregnenolone to give a total substrate concentration of 1.0 μM or 0.3 μM per assay and are subsequently incubated at 34° C. for 6 minutes. For determination of reversible inhibition by the test compound, the reaction is initiated by the addition of substrate, 7-^3 H-17α-hydroxypregnenolone (11.2 mCi/mmole; 0.20 μCi per assay) plus unlabeled 17α-hydroxypregnenolone to yield a final concentration of 0.3 μM (=Km), to the other assay components. The complete assay is incubated at 34° C. for 6 minutes. Each assay is terminated by addition of 5 mL of chloroform/methanol (2:1). Carrier steroids representing substrates and products (17α-hydroxypregnenolone, dehydroepiandrosterone, and androst-5-ene-3β,17β-diol and 0.8 mL of distilled, deionized water are also added at this time. The steroids are extracted by the method of Moore and Wilson (Methods in Enzymol., eds. O'Malley, B. W. and Hardman, J. G. 36, 1975, pp.466-474). The organic phase containing the steroids is evaporated using nitrogen gas, the residue is dissolved in 18% tetrahydrofuran (v/v) in hexane and the steroids are separated by HPLC on an Si60 (5 μm) column (250×4 mm) using a gradient of 18-22% tetrahydrofuran (v/v) in hexane. Radioactivity in the steroid peaks is measured using a Radiometric Model HS or Model A515 Flo-One detector.
(§2) The enzyme activity for each assay is calculated from the percent conversion of substrate to products, and the results are expressed as percent inhibition of control.

[2] = target: T1, Cynomolgus Monkey Testicular C17-20 Lyase; assay: Screen for inhibition of cynomolgus monkey testicular C17-20 lyase by compounds of formula (II)
Description: as §1, §2

[3] = target: T2, Human Testicular C17-20 Lyase (Homo sapiens, UniProt P05093); assay: Screen for time-dependent inhibition of human testicular C17-20 lyase (microsomal preparation)
T2 construct: Microsomes are isolated from human or cynomolgus monkey tissue; from tissue; host or cells: human testes from therapeutic orchiectomies, microsomes
T2 sequence (P05093 1-508): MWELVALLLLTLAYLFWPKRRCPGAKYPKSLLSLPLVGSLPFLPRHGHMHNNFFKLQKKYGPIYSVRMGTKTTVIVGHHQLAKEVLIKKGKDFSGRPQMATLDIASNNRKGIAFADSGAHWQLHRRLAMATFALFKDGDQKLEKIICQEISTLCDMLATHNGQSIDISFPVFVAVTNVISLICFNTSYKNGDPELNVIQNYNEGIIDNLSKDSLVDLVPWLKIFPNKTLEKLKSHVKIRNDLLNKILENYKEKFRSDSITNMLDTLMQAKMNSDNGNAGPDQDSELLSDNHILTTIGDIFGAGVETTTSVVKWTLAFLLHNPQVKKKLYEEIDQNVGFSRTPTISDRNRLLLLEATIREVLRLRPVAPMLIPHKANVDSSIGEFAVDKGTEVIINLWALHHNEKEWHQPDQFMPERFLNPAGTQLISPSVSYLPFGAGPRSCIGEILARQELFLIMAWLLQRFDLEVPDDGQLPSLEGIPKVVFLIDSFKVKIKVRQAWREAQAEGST
Description: as §1, §2

In the case of C[C@]12CCC(=O)CC1=CC[C@@H]1[C@@H]2CC[C@]2(C)C(c3csc(N)n3)=CC[C@@H]12 [17-(2-amino-4-thiazolyl)-androsta-5,16-dien-3-one], the inhibition at 1 µM ([1]; preincubation 0 min) is reported as 66% and the inhibition at 10 µM ([1]; preincubation 0 min) is reported as 92%.

C[C@]12CC[C@H](O)CC1=CC[C@@H]1[C@@H]2CC[C@]2(C)C(c3ccsc3)=CC[C@@H]12 [17-(3-thienyl)androsta-5,16-dien-3β-ol, (3β)-17-(3-thienyl)-androsta-5,16-dien-3-ol] was tested, and the inhibition at 0.1 µM [2] was 21% and the inhibition at 1 µM [2] was 42%.

For C[C@]12CC[C@H](O)CC1=CC[C@@H]1[C@@H]2CC[C@]2(C)C(c3ccoc3)=CC[C@@H]12 [17-(3-furanyl)androsta-5,16-dien-3β-ol, (3β)-17-(3-furanyl)-androsta-5,16-dien-3-ol], the inhibition at 0.1 µM [2] was 53% and the inhibition at 1 µM [2] was 91%.

In the case of CNc1nc(C2=CC[C@H]3[C@@H]4CC=C5C[C@@H](O)CC[C@]5(C)[C@H]4CC[C@]23C)cs1 [(3β)-17-[2-(methylamino)-4-thiazolyl]-androsta-5,16-dien-3-ol.HBr], the inhibition at 1 µM ([1]; preincubation 0 min) is reported as 28%, the inhibition at 10 µM ([1]; preincubation 0 min) is reported as 40% and the inhibition at 1 µM ([1]; preincubation 40 min) is reported as 26%. For the same molecule, the inhibition at 10 µM ([1]; preincubation 40 min) was 80%.

Molecule C[C@]12CC[C@H](O)CC1=CC[C@@H]1[C@@H]2CC[C@]2(C)C(c3cccs3)=CC[C@@H]12 [17-(2-thienyl)androsta-5,16-dien-3β-ol, (3β)-17-(2-thienyl)-androsta-5,16-dien-3-ol] has an inhibition at 0.1 µM [2] of 43% and an inhibition at 1 µM [2] of 75%.

Molecule C[C@]12CC[C@H](O)CC1=CC[C@@H]1[C@@H]2CC[C@]2(C)C(c3csc(N)n3)=CC[C@@H]12 [(3β)-17-(2-amino-4-thiazolyl)-androsta-5,16-dien-3-ol.HBr.CH3 CH2 OH] has an inhibition at 1 µM ([3]; preincubation 0 min) of 44%, an inhibition at 10 µM ([3]; preincubation 0 min) of 62% and an inhibition at 1 µM ([3]; preincubation 40 min) of 32%. The inhibition at 10 µM ([3]; preincubation 40 min) was 29%.

C[C@]12CC[C@H](O)CC1=CC[C@@H]1[C@@H]2CC[C@]2(C)C(c3ccco3)=CC[C@@H]12 [17-(2-furanyl)androsta-5,16-dien-3β-ol, (3β)-17-(2-furanyl)-androsta-5,16-dien-3-ol] was tested, and the inhibition at 0.1 µM [2] was 10% and the inhibition at 1 µM [2] was 72%.
